Assay results from article PMC8899467 (Frontiers in Pharmacology, 2022).

How the values were obtained:
[1] = biological target: T1, bovine fibrinogen (Bos taurus, UniProt P02672+P02676+P12799); test: intrinsic Trp fluorescence quenching; assay type: binding; settings: 0.8 mg/ml fibrinogen, Tyrode buffer pH 7.4, 37 °C, 15 min
T1 construct: gene FGA; native plasma protein, Sigma-Aldrich; hexamer
T1 sequence (P02672 20-615): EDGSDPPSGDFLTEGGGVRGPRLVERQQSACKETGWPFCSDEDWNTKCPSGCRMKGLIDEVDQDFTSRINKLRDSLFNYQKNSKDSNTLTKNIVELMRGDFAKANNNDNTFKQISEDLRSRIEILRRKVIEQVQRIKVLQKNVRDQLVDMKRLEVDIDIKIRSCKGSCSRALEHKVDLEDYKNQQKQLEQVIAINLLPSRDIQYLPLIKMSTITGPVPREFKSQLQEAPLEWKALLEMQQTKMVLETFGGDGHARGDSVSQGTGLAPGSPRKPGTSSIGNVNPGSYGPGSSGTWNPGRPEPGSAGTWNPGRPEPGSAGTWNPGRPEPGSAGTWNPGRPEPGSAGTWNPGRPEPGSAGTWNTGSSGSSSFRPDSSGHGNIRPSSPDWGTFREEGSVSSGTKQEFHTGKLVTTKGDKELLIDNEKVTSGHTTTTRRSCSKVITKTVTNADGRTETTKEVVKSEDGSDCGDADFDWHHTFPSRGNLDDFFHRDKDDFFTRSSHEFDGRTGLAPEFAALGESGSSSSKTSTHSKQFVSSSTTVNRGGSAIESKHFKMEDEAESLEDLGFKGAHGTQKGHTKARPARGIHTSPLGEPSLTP
T1 sequence (P02676 1-468): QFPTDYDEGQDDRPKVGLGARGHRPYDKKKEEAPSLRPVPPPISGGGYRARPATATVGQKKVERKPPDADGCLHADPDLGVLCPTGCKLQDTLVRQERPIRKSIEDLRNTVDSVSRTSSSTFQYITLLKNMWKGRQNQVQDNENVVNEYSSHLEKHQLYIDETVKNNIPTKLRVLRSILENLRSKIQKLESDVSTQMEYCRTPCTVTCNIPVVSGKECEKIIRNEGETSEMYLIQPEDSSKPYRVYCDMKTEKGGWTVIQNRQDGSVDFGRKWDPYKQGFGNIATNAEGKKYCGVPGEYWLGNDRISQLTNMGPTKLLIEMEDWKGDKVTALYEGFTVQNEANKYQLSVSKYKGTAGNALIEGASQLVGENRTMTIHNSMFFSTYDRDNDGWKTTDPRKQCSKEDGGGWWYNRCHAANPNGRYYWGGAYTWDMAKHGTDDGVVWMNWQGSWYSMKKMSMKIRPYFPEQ
T1 sequence (P12799 25-444): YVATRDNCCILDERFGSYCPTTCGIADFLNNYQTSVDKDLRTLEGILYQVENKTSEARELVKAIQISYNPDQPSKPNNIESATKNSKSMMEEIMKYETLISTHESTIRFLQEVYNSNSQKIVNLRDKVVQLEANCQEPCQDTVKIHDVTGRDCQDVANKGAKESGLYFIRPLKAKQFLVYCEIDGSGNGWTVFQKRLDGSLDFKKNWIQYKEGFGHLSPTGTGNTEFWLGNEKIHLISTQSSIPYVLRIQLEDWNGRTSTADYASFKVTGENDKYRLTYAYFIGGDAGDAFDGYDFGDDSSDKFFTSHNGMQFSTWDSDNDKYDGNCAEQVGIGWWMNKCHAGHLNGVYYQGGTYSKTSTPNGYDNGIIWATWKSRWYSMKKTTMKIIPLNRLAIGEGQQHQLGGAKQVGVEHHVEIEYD

[2] = biological target: T2, bovine serum albumin (BSA) (Bos taurus, UniProt P02769); test: intrinsic Trp fluorescence quenching; assay type: binding; settings: 0.8 mg/ml BSA, Tyrode buffer pH 7.4, 37 °C, 15 min
T2 construct: gene ALB; native mature serum albumin
T2 sequence (P02769 25-607): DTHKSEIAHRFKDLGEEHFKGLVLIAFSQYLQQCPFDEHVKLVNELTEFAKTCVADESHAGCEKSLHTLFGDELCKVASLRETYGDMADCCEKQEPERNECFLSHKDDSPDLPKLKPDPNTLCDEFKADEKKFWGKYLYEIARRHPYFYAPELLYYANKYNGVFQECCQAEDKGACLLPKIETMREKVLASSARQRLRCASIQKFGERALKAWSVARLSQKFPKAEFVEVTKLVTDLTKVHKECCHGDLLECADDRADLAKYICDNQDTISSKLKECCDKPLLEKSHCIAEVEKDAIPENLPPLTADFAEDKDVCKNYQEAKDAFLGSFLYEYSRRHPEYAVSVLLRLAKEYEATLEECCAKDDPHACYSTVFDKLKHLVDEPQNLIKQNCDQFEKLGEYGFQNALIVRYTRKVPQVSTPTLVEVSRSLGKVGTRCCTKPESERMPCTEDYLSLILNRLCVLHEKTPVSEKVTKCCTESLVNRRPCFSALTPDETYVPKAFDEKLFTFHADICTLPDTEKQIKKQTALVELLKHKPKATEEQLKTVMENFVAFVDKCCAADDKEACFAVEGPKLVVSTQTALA

Compound: C[C@@H]1O[C@@H](OC[C@H]2O[C@@H](Oc3c(-c4ccc(O)c(O)c4)oc4cc(O)cc(O)c4c3=O)[C@H](O)[C@@H](O)[C@@H]2O)[C@H](O)[C@H](O)[C@H]1O [rutin]
- intrinsic Trp fluorescence quenching [1]: Pre-incubation of rutin and RS with fibrinogen (Figures 6A,B) or albumin (Figures 6C,D) decreased the fluorescence
- intrinsic Trp fluorescence quenching [2]: or albumin (Figures 6C,D) decreased the fluorescence of their Trp residues
